Patent publication US20020040032A1, “Methods for stimulation of synthesis of synaptophysin in the central nervous system” (priority 2000, published 2002)

Experiments:
[1] = system: synaptophysin; assay: Synaptophysin levels in PC12 cells after treatment, Western immunoblot (Example 1); assay type: cell-based
Protocol: PC12 cells were first grown to 70-80% confluence in the regular medium. A day prior to the experiment, PC12 cells were subcultured uniformly onto the plate with minimum cellular aggregation/clumping to approximately 1×10^6 cells per 60-mm plate. The PC12 cells were then subjected to treatments with either AIT-082, NGF, bFGF or a combination as previously described (5). AIT-082 was added into separate plates at […]: 0, 5, 20, 30, 50, 100, 300 ng/ml and also 1, 3, 10, 30, 100 μg/ml. For comparative purposes, cultures were treated with NGF at 10 and 50 ng/ml, and bFGF was used at 50 ng/ml. Additional cultures contained both AIT-082 (300 ng/ml) and either NGF (50 ng/ml) or bFGF (50 ng/ml). These different agents were prepared in the same culture medium and added to the respective plate. Following incubation for 48 hours, the conditioned medium from each plate was collected.
Total proteins from the conditioned media were analyzed on a 12% polyacrylamide gel containing SDS (SDS-PAGE), and western blot analysis was performed in the Mini-PROTEAN II system of Bio-Rad as described previously (7). Levels of synaptophysin in the conditioned medium and the cell lysates (intracellular) were analyzed using an anti-synaptophysin antibody (Boehringer Mannheim). A biotinylated secondary antibody, horse anti-mouse (Boehringer Mannheim), was also used. The detection system was based on the avidin-biotinylated-complex (Vector labs, Burlingame, Calif.) and enzymatic color reactions.

[2] = system: synaptophysin; assay: Time course of synaptophysin accumulation after administration to PC12 cells, Western immunoblot (Example 2); assay type: cell-based
Protocol: To determine the time course of synaptophysin accumulation in the extracellular fluid after administration of AIT-082 or NGF to PC12 cells, an experiment similar to the experiment of Example 1 was carried out using multiple time points. Five to six million PC12 cells were treated in RPMI 1640 and 0.5% FBS with doses of AIT-082 (10 nM-100 μM). […] Levels of synaptophysin in samples from conditioned media and cell lysates were measured by Western immunoblotting with anti-synaptophysin antibodies.

[3] = system: PC12 cells; assay: Differentiation of PC12 cells (Example 2); assay type: cell-based
[4] = system: nerve growth factor (NGF), neurotrophin-3, and basic fibroblast growth factor (bFGF); details: reference 4 (Rathbone et al. 1999); cited from earlier work

Compound | dose giving the highest level of synaptophysin ([1]; PC12 cells, conditioned medium, densitometry, FIG. 2) [ng/mL] | amount of synaptophysin in the conditioned medium vs. control ([1]; PC12 cells, dose-dependent from 5-30 ng/ml, FIG. 1 lanes 5-8 vs. lane 1) | level of synaptophysin in the conditioned medium vs. control at higher doses ([1]; PC12 cells, doses above 30 ng/ml, increase not sustained to the same extent) | intracellular levels of synaptophysin vs. control ([1]; PC12 cultures, cell lysates) | levels of synaptophysin in the conditioned medium vs. control ([2]; 10 nM-100 μM, 6, 12, 24, 48, or 72 hours, each time point) | intracellular levels of synaptophysin ([2]; cell lysates, 10 nM-100 μM) | effect of cotreatment on NGF-mediated differentiation ([3]; cotreatment with NGF) | induction of expression of neurotrophins [4] | phenotype after treatment [3]
O=C(CCn1cnc2c(=O)[nH]cnc21)Nc1ccc(C(=O)O)cc1 [AIT-082, N-4-carboxyphenyl-3-(6-oxohydropurin-9-yl)propanamide] | 30 | increased | still greater than the control | significant increase | significantly increased | significant increase | enhanced NGF-mediated differentiation | can induce the expression of at least three neurotrophins | –
NGF: Nerve growth factor procured from Life Technologies | – | – | – | – | – | – | – | – | sympathetic neuronal phenotypes
